{"source": "paper PMC3614091", "about": "(Organic & biomolecular chemistry, 2010)", "key": {"PDZ1 of PSD-95 [1]": {"biological_target": "T1, PDZ1 of PSD-95 (Homo sapiens, UniProt P78352)", "assay": "Fluorescence polarization assay, PSD-95 PDZ1", "type": "binding", "settings": "tested at 500 µM (data not shown)"}, "PDZ3 of PSD-95 [2]": {"biological_target": "T2, PDZ3 of PSD-95 (Homo sapiens, UniProt P78352)", "assay": "Fluorescence polarization assay, PSD-95 PDZ3", "type": "binding", "settings": "tested at 500 µM (data not shown)"}, "PICK1 PDZ domain [3]": {"biological_target": "T3, PICK1 PDZ domain (Rattus norvegicus, UniProt Q9EP80)", "T3 sequence (Q9EP80 whole entry, the tested form may be a part)": "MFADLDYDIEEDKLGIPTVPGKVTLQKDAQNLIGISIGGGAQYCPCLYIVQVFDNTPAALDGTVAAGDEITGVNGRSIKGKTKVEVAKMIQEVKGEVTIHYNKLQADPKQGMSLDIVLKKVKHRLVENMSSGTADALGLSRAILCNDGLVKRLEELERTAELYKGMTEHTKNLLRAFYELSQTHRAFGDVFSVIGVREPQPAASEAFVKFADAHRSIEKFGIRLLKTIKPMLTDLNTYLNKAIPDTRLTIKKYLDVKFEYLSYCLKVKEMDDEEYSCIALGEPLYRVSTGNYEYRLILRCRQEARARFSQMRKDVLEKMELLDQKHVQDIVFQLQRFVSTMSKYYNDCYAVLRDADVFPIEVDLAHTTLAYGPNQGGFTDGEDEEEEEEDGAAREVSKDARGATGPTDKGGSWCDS", "type": "binding", "settings": "for affinity for PICK1 PDZ domain: at up to 500 µM concentrations (data not shown)"}, "PDZ2 of PSD-95 [4]": {"biological_target": "T4, PDZ2 of PSD-95 (Homo sapiens, UniProt P78352)", "assay": "Fluorescence polarization assay, PSD-95 PDZ2", "type": "binding", "settings": "tested at 500 µM (data not shown)"}, "PDZ1 of PSD-95 [5]": {"biological_target": "T1, PDZ1 of PSD-95", "settings": "PDZ domains from PSD-95; cited from earlier work"}, "hippocampal CA1 neurons": {"system": "hippocampal CA1 neurons", "settings": "cited from earlier work"}, "PDZ2 of PSD-95 [6]": {"biological_target": "T4, PDZ2 of PSD-95", "settings": "PDZ domains from PSD-95; cited from earlier work"}, "[7]": {"system": "AMPA receptor trafficking", "settings": "cited from earlier work"}, "[8]": {"system": "PDZ4-5 of glutamate receptor interacting protein-1 (GRIP1)", "settings": "PDZ4-5 of GRIP1; cited from earlier work"}, "PDZ3 of PSD-95 [9]": {"biological_target": "T2, PDZ3 of PSD-95", "settings": "PDZ domains from PSD-95; cited from earlier work"}, "PICK1": {"system": "PICK1", "settings": "biochemical studies; cited from earlier work"}, "PICK1 PDZ domain [10]": {"biological_target": "T3, PICK1 PDZ domain", "settings": "cited from earlier work"}}}
{"molecule": "CCOC(=O)NC(=O)C(C#N)Cc1ccc(Cl)c(Cl)c1", "note": "(centres unmarked) [Compound 3, Ethyl 2-cyano-3-(3,4-dichlorophenyl)propanoylcarbamate]", "values": [{"measurement": "affinity towards PDZ1 of PSD-95", "setting": "PDZ1 of PSD-95 [1]", "value": "none of the compounds showed affinity"}, {"measurement": "affinity towards PDZ3 of PSD-95", "setting": "PDZ3 of PSD-95 [2]", "value": "none of the compounds showed affinity"}, {"measurement": "affinity for PICK1 PDZ domain", "setting": "PICK1 PDZ domain [3]", "value": "devoid of affinity"}, {"measurement": "affinity towards PDZ2 of PSD-95", "setting": "PDZ2 of PSD-95 [4]", "value": "none of the compounds showed affinity"}]}
{"molecule": "CCOC(=O)NC/C(C#N)=C/c1ccc(Cl)c(Cl)c1", "note": "[Compound 14, (Z)-ethyl 2-cyano-3-(3,4-dichlorophenyl)allylcarbamate]", "values": [{"measurement": "affinity towards PDZ1 of PSD-95", "setting": "PDZ1 of PSD-95 [1]", "value": "none of the compounds showed affinity"}, {"measurement": "affinity towards PDZ3 of PSD-95", "setting": "PDZ3 of PSD-95 [2]", "value": "none of the compounds showed affinity"}, {"measurement": "affinity for PICK1 PDZ domain", "setting": "PICK1 PDZ domain [3]", "value": "devoid of affinity"}, {"measurement": "affinity towards PDZ2 of PSD-95", "setting": "PDZ2 of PSD-95 [4]", "value": "none of the compounds showed affinity"}]}
{"molecule": "CCOC(=O)NC(=O)/C(C#N)=C/c1ccc(Cl)c(Cl)c1", "note": "[Compound 1, (E)-ethyl 2-cyano-3-(3,4-dichlorophenyl)acryloylcarbamate]", "values": [{"measurement": "affinity for PDZ1 of PSD-95", "setting": "PDZ1 of PSD-95 [5]", "value": "no affinity"}, {"measurement": "effect on induction of LTD and LTP", "setting": "hippocampal CA1 neurons", "value": "inhibited induction of LTD and LTP"}, {"measurement": "affinity for PDZ2 of PSD-95", "setting": "PDZ2 of PSD-95 [6]", "value": "no affinity"}, {"measurement": "effect on AMPA receptor trafficking", "setting": "[7]", "value": "affected AMPA receptor trafficking"}, {"measurement": "affinity for PDZ domains from GRIP1", "setting": "[8]", "value": "no affinity"}, {"measurement": "affinity for PDZ3 of PSD-95", "setting": "PDZ3 of PSD-95 [9]", "value": "no affinity"}, {"measurement": "Ki", "setting": "PICK1 PDZ domain [3]", "value": "9.6 ± 0.22", "unit": "µM"}, {"measurement": "reversibility of binding to PICK1", "setting": "PICK1", "value": "binds reversibly"}, {"measurement": "binding to PICK1 PDZ domain in living cells", "setting": "PICK1 PDZ domain [10]; intracellular FRET", "value": "binds the PICK1 PDZ domain in living cells"}, {"measurement": "membrane permeability", "setting": "PICK1 PDZ domain [10]; not told", "value": "membrane permeable"}]}
{"molecule": "CCCCNC(=O)/C(C#N)=C/c1ccc(Cl)c(Cl)c1", "note": "[Compound 8, (E)-N-butyl-2-cyano-3-(3,4-dichlorophenyl)acrylamide]", "values": [{"measurement": "affinity towards PDZ1 of PSD-95", "setting": "PDZ1 of PSD-95 [1]", "value": "none of the compounds showed affinity"}, {"measurement": "affinity towards PDZ3 of PSD-95", "setting": "PDZ3 of PSD-95 [2]", "value": "none of the compounds showed affinity"}, {"measurement": "affinity for PICK1 PDZ domain", "setting": "PICK1 PDZ domain [3]", "value": "devoid of affinity"}, {"measurement": "affinity towards PDZ2 of PSD-95", "setting": "PDZ2 of PSD-95 [4]", "value": "none of the compounds showed affinity"}]}
{"molecule": "CCOC(=O)NC(=O)/C=C/c1ccc(Cl)c(Cl)c1", "note": "[Compound 5, (E)-ethyl 3-(3,4-dichlorophenyl)acryloylcarbamate]", "values": [{"measurement": "affinity towards PDZ1 of PSD-95", "setting": "PDZ1 of PSD-95 [1]", "value": "none of the compounds showed affinity"}, {"measurement": "affinity towards PDZ3 of PSD-95", "setting": "PDZ3 of PSD-95 [2]", "value": "none of the compounds showed affinity"}, {"measurement": "affinity for PICK1 PDZ domain", "setting": "PICK1 PDZ domain [3]", "value": "devoid of affinity"}, {"measurement": "affinity towards PDZ2 of PSD-95", "setting": "PDZ2 of PSD-95 [4]", "value": "none of the compounds showed affinity"}]}
